Source: ChEMBL document CHEMBL3822389, “New insights into 3-(aminomethyl)naphthoquinones: Evaluation of cytotoxicity, electrochemical behavior and search for structure-activity correlation” (Bioorg Med Chem Lett, 2016)

What was measured:
[1] = Cytotoxicity against human HCT8 cells after 72 hrs by MTT assay; type: functional, cell-based, HCT-8
[2] = Cytotoxicity against human SF295 cells after 72 hrs by MTT assay; type: functional, cell-based, SF-295
[3] = Cytotoxicity against human HL60 cells after 72 hrs by MTT assay; type: functional, cell-based, HL-60
[4] = tested on: MDA-MB-435; assay: Cytotoxicity against human MDA-MB-435 cells after 72 hrs by MTT assay; type: functional, cell-based

Row | Structure (SMILES) | IC50 ([1]; Homo sapiens, HCT-8, 72 h) [µM] | IC50 ([2]; sf-295) [µM] | IC50 ([3]; hl-60) [µM] | IC50 ([4]; Homo sapiens, MDA-MB-435, 72 h) [µM] | IC50 ([1]; hct-8) [µM] | IC50 ([4]; mda-mb-435) [µM] | IC50 ([2]; Homo sapiens, SF-295, 72 h) [µM] | IC50 ([3]; Homo sapiens, HL-60, 72 h) [µM]
1 | O=C1C(O)=C(C(NCc2ccccc2)c2ccccc2O)C(=O)c2ccccc21 (centres undefined) [listing 1 of 2 here] | 14.4 | 11.6 | 4.6 | 18.3 |  |  |  | 
2 | O=C1C(O)=C(C(NCc2ccccn2)c2ccccc2)C(=O)c2ccccc21 (centres undefined) [listing 1 of 2 here] |  | 13.5 | 5.4 |  | 6.3 | 3.6 |  | 
3 | CC(C)(C)OC(=O)NCCNC(C1=C(O)C(=O)c2ccccc2C1=O)c1ccccc1 (centres undefined) | > 40 |  |  | > 40 |  |  | > 40 | > 40
4 | O=C1C(O)=C(C(NCc2ccccc2)c2ccc([N+](=O)[O-])cc2)C(=O)c2ccccc21 (centres undefined) [listing 1 of 2 here] |  |  |  |  |  |  | > 40 | > 40
5 | CC(C)(C)OC(=O)NCCNC(C1=C(O)C(=O)c2ccccc2C1=O)c1cccc(O)c1 (centres undefined) | > 40 |  |  | > 40 |  |  | > 40 | > 40
6 | O=C1C(O)=C(C(NCc2ccccc2)c2ccccc2O)C(=O)c2ccccc21 (centres undefined) [listing 2 of 2 here] |  |  |  |  | 15.6 | 18.9 | 23.1 | 3.9
7 | CC(C)(C)OC(=O)NCCNC(C1=C(O)C(=O)c2ccccc2C1=O)c1ccc([N+](=O)[O-])cc1 (centres undefined) | > 40 |  |  | > 40 |  |  | > 40 | > 40
8 | O=C1C(O)=C(C(Nc2ccccc2)c2ccccn2)C(=O)c2ccccc21 (centres undefined) | > 40 |  |  | > 40 |  |  | > 40 | > 40
9 | COc1ccc(NC(C2=C(O)C(=O)c3ccccc3C2=O)c2ccccn2)cc1 (centres undefined) | > 40 |  |  | > 40 |  |  | > 40 | > 40
10 | O=C1C(O)=C(C(NCc2ccccc2)c2cc(Br)ccc2O)C(=O)c2ccccc21 (centres undefined) [listing 1 of 2 here] | 15.9 | 10.7 | 4.9 | > 40 |  |  |  | 
11 | O=C1C(O)=C(C(NCCCCl)c2ccccc2O)C(=O)c2ccccc21 (centres undefined) | 17.7 |  |  | 30.1 |  |  | 17.5 | 8.1
12 | CCCCCCCNC(C1=C(O)C(=O)c2ccccc2C1=O)c1ccc([N+](=O)[O-])cc1 (centres undefined) | > 40 |  |  | > 40 |  |  | > 40 | > 40
13 | Cc1ccc(NC(C2=C(O)C(=O)c3ccccc3C2=O)c2ccccn2)cc1 (centres undefined) | > 40 |  |  | > 40 |  |  | > 40 | > 40
14 | CCCCNC(C1=C(O)C(=O)c2ccccc2C1=O)c1cccc(O)c1 (centres undefined) | > 40 |  |  | > 40 |  |  | > 40 | > 40
15 | Cc1ccc(O)c(C(NCc2ccccc2)C2=C(O)C(=O)c3ccccc3C2=O)c1 (centres undefined) [listing 1 of 2 here] |  |  |  |  | 11.3 | 15.8 | 8.5 | 7.2
16 | O=C1C(O)=C(C(NCCCCl)c2cc(Br)ccc2O)C(=O)c2ccccc21 (centres undefined) | > 40 |  |  | > 40 |  |  | 28.8 | 8.4
17 | O=C1C(O)=C(C(NCc2ccco2)c2ccccn2)C(=O)c2ccccc21 (centres undefined) | 4.4 |  |  | > 40 |  |  | 3.3 | 5.8
18 | O=C1C(O)=C(C(NCc2ccccc2)c2ccccn2)C(=O)c2ccccc21 (centres undefined) | 2.2 |  |  | > 40 |  |  | 1.3 | 4.8
19 | O=C1C(O)=C(C(NCCCCl)c2ccc([N+](=O)[O-])cc2)C(=O)c2ccccc21 (centres undefined) | > 40 |  |  | > 40 |  |  | > 40 | > 40
20 | CCCCCCCNC(C1=C(O)C(=O)c2ccccc2C1=O)c1cccc(O)c1 (centres undefined) | > 40 |  |  | > 40 |  |  | > 40 | > 40

Row | Structure (SMILES) | IC50 ([1]; Homo sapiens, HCT-8, 72 h) [µM] | IC50 ([2]; sf-295) [µM] | IC50 ([3]; hl-60) [µM] | IC50 ([4]; Homo sapiens, MDA-MB-435, 72 h) [µM] | IC50 ([1]; hct-8) [µM] | IC50 ([4]; mda-mb-435) [µM] | IC50 ([2]; Homo sapiens, SF-295, 72 h) [µM] | IC50 ([3]; Homo sapiens, HL-60, 72 h) [µM]
21 | CC(C)(C)OC(=O)NCCNCC1=C(O)C(=O)c2ccccc2C1=O | > 40 |  |  | > 40 |  |  | > 40 | > 40
22 | CCCCNC(C1=C(O)C(=O)c2ccccc2C1=O)c1ccc(Cl)cc1Cl (centres undefined) [listing 1 of 2 here] | > 40 |  |  | > 40 |  |  |  | 
23 | CCCCNC(C1=C(O)C(=O)c2ccccc2C1=O)c1ccc([N+](=O)[O-])cc1 (centres undefined) [listing 1 of 2 here] |  |  |  |  |  |  | > 40 | > 40
24 | CC(C)(C)OC(=O)NCCCNCC1=C(O)C(=O)c2ccccc2C1=O | > 40 |  |  | > 40 |  |  | > 40 | > 40
25 | O=C1C(O)=C(C(NCc2ccccn2)c2ccccc2)C(=O)c2ccccc21 (centres undefined) [listing 2 of 2 here] |  | > 40 | > 40 |  | 14.3 | > 40 |  | 
26 | CCCCNC(C1=C(O)C(=O)c2ccccc2C1=O)c1cc(Br)ccc1O (centres undefined) [listing 1 of 2 here] |  | > 40 | > 40 | > 40 | > 40 |  |  | 
27 | O=C1C(O)=C(C(NCCCCl)c2cccc(O)c2)C(=O)c2ccccc21 (centres undefined) | > 40 |  |  | > 40 |  |  | > 40 | > 40
28 | CC(C)(C)OC(=O)NCCCNC(C1=C(O)C(=O)c2ccccc2C1=O)c1ccc(Cl)cc1Cl (centres undefined) | 21.2 |  |  | 16.2 |  |  | > 40 | 
29 | CCCCNC(C1=C(O)C(=O)c2ccccc2C1=O)c1cc(C)ccc1O (centres undefined) [listing 1 of 2 here] |  | 29.6 | 6 |  | 17 | 26.5 |  | 
30 | CCCCCCCCCCNC(C1=C(O)C(=O)c2ccccc2C1=O)c1cc(Br)ccc1O (centres undefined) | > 40 |  |  | > 40 |  |  | > 40 | > 40
31 | CCCCNC(C1=C(O)C(=O)c2ccccc2C1=O)c1ccccc1O (centres undefined) [listing 1 of 2 here] | > 40 | > 40 | > 40 | > 40 |  |  |  | 
32 | CCCCNC(C1=C(O)C(=O)c2ccccc2C1=O)c1ccccn1 (centres undefined) | 12.5 |  |  | > 40 |  |  | 9.5 | > 40
33 | Cc1ccc(O)c(C(NCc2ccccc2)C2=C(O)C(=O)c3ccccc3C2=O)c1 (centres undefined) [listing 2 of 2 here] | 12.1 | 14.4 |  | 18.7 |  |  |  | 
34 | COc1cccc2c1C(=O)c1c(O)c3c(c(O)c1C2=O)C[C@@](O)(C(=O)CO)C[C@@H]3O[C@H]1C[C@H](N)[C@H](O)[C@H](C)O1 [DOXORUBICIN] |  |  |  |  |  |  | 0.39 | 0.03
35 | CC(C)(C)OC(=O)NCCCNC(C1=C(O)C(=O)c2ccccc2C1=O)c1cccc(O)c1 (centres undefined) | > 40 |  |  | > 40 |  |  | > 40 | > 40
36 | CCCCCCCCCCNC(C1=C(O)C(=O)c2ccccc2C1=O)c1ccccn1 (centres undefined) | 1.7 |  |  | 23.3 |  |  | 1.7 | 3.8
37 | CCCCNC(C1=C(O)C(=O)c2ccccc2C1=O)c1ccc([N+](=O)[O-])cc1 (centres undefined) [listing 2 of 2 here] | > 40 |  |  | > 40 |  |  |  | 
38 | CCCCCCCNC(C1=C(O)C(=O)c2ccccc2C1=O)c1ccc(Cl)cc1Cl (centres undefined) | > 40 |  |  | > 40 |  |  | > 40 | 4.5
39 | O=C1C(O)=C(C(NCCCCl)c2ccc(Cl)cc2Cl)C(=O)c2ccccc21 (centres undefined) | > 40 |  |  | > 40 |  |  | > 40 | > 40
40 | CCCCNC(C1=C(O)C(=O)c2ccccc2C1=O)c1cc(C)ccc1O (centres undefined) [listing 2 of 2 here] |  | 5.5 | 1.6 |  | 5.6 | 11 |  | 

Row | Structure (SMILES) | IC50 ([1]; Homo sapiens, HCT-8, 72 h) [µM] | IC50 ([2]; sf-295) [µM] | IC50 ([3]; hl-60) [µM] | IC50 ([4]; Homo sapiens, MDA-MB-435, 72 h) [µM] | IC50 ([1]; hct-8) [µM] | IC50 ([4]; mda-mb-435) [µM] | IC50 ([2]; Homo sapiens, SF-295, 72 h) [µM] | IC50 ([3]; Homo sapiens, HL-60, 72 h) [µM]
41 | O=C1C(O)=C(C(NCCCCl)c2ccccn2)C(=O)c2ccccc21 (centres undefined) | > 40 |  |  | > 40 |  |  | > 40 | > 40
42 | CCCCCCCNC(C1=C(O)C(=O)c2ccccc2C1=O)c1ccccc1 (centres undefined) | > 40 |  |  | > 40 |  |  | > 40 | > 40
43 | O=C1C(O)=C(C(NCCCCl)c2ccccc2)C(=O)c2ccccc21 (centres undefined) | > 40 |  |  | > 40 |  |  | > 40 | > 40
44 | O=C1C(O)=C(C(NCc2ccccc2)c2ccc([N+](=O)[O-])cc2)C(=O)c2ccccc21 (centres undefined) [listing 2 of 2 here] | > 40 |  |  | > 40 |  |  |  | 
45 | CC(C)(C)OC(=O)NCCCNC(C1=C(O)C(=O)c2ccccc2C1=O)c1ccccc1 (centres undefined) | > 40 |  |  | > 40 |  |  | > 40 | > 40
46 | O=C1C(O)=C(C(NCc2ccco2)c2ccccc2O)C(=O)c2ccccc21 (centres undefined) |  | 1.8 | 1.2 |  | 3 | 2.9 |  | 
47 | CCCCCCCNC(C1=C(O)C(=O)c2ccccc2C1=O)c1ccccn1 (centres undefined) | 1.6 |  |  | > 40 |  |  | 1 | 1.8
48 | CCCCCCCCCCNC(C1=C(O)C(=O)c2ccccc2C1=O)c1cccc(O)c1 (centres undefined) | 25.8 |  |  | 31.1 |  |  | > 40 | 11.9
49 | CCCCNC(C1=C(O)C(=O)c2ccccc2C1=O)c1cc(Br)ccc1O (centres undefined) [listing 2 of 2 here] |  |  | 6.2 |  | 12.5 | 23.9 | 21.4 | 
50 | CCCCCCCNC(C1=C(O)C(=O)c2ccccc2C1=O)c1ccccc1O (centres undefined) | 19.7 |  |  | 33.3 |  |  | 18.9 | 7.7
51 | CCCCCCCCCCNC(C1=C(O)C(=O)c2ccccc2C1=O)c1ccccc1O (centres undefined) | 32.2 |  |  | 30.9 |  |  | 23.1 | 12.2
52 | CC(C)(C)OC(=O)NCCNC(C1=C(O)C(=O)c2ccccc2C1=O)c1ccc(Cl)cc1Cl (centres undefined) | > 40 |  |  | > 40 |  |  | > 40 | > 40
53 | O=C1C(O)=C(C(NCc2ccccc2)c2cc(Br)ccc2O)C(=O)c2ccccc21 (centres undefined) [listing 2 of 2 here] |  |  |  |  | 14.9 | 25.2 | 17.4 | 8.4
54 | O=C1C(O)=C(CNCCCCl)C(=O)c2ccccc21 | > 40 |  |  | > 40 |  |  | > 40 | > 40
55 | CCCCNC(C1=C(O)C(=O)c2ccccc2C1=O)c1ccccc1O (centres undefined) [listing 2 of 2 here] |  |  | 6.5 |  | 20.5 | 25.6 | 33.3 | 
56 | CC(C)(C)OC(=O)NCCCNC(C1=C(O)C(=O)c2ccccc2C1=O)c1ccccc1O (centres undefined) | 22.7 |  |  | 37.8 |  |  | 26 | 17.2
57 | CC(C)(C)OC(=O)NCCCNC(C1=C(O)C(=O)c2ccccc2C1=O)c1ccc([N+](=O)[O-])cc1 (centres undefined) | > 40 |  |  | > 40 |  |  | > 40 | > 40
58 | CC(C)(C)OC(=O)NCCNC(C1=C(O)C(=O)c2ccccc2C1=O)c1ccccc1O (centres undefined) | 10.8 |  |  | 26.3 |  |  | 15.9 | 19.2
59 | CCCCCCCNC(C1=C(O)C(=O)c2ccccc2C1=O)c1cc(Br)ccc1O (centres undefined) | > 40 |  |  | > 40 |  |  | > 40 | > 40
60 | CCCCNC(C1=C(O)C(=O)c2ccccc2C1=O)c1ccc(Cl)cc1Cl (centres undefined) [listing 2 of 2 here] |  |  |  |  |  |  | > 40 | > 40
